Nine molecules from ChEMBL document CHEMBL3044557, “Phytotoxicity Caused by Peroxidizing Herbicides Is Alleviated by 2-Substituted 4, 6-Bis(ethylamino)-1, 3, 5-triazines” (J Pestic Sci, 1997) can be followed below.

Activity calls are given as the source filed them. The rule behind the calls is not given here.

Assay [1] concerns Scenedesmus acutus. Kind of assay: Protection against chlorophthalim-induced phytotoxicity in Scenedesmus acutus in light condition assessed as cell density per micro liter of packed cell volume after 16 hr (reference value: 2.1 ml). Also noted: unit not given here. It counts as functional.
The subject of assay [2] is Scenedesmus acutus. Kind of assay: Protection against chlorophthalim-induced phytotoxicity in Scenedesmus acutus in light condition assessed as increase of chlorophyll content after 16 hr (reference value: 0.94 ug/ml). In kind it is functional.
Assay [3] relates to Scenedesmus acutus. Kind of assay: Protection against oxyfluorfen-induced phytotoxicity in Scenedesmus acutus in light condition assessed as reduction of ethane formation per ml of packed cell volume after 16 hr (reference value: 11.82 nM). In kind it is functional.
Assay [4] deals with Scenedesmus acutus. Kind of assay: Protection against oxyfluorfen-induced phytotoxicity in Scenedesmus acutus in light condition assessed as cell density per micro liter of packed cell volume after 16 hr (reference value: 2.1 ml). In kind it is functional. Also noted: unit not given here.
The test system of assay [5] is Scenedesmus acutus. The assay is described as follows: Protection against chlorophthalim-induced phytotoxicity in Scenedesmus acutus in light condition assessed as reduction of protoporphyrin-9 accumulation per ml of packed cell volume after 2 hr. It counts as functional.
Assay [6] concerns Scenedesmus acutus. The assay is described as follows: Protection against chlorophthalim-induced phytotoxicity in Scenedesmus acutus in light condition assessed as reduction of ethane formation per ml of packed cell volume after 16 hr (reference value: 11.82 nM). It counts as functional.
The subject of assay [7] is Scenedesmus acutus. Kind of assay: Protection against oxyfluorfen-induced phytotoxicity in Scenedesmus acutus in light condition assessed as increase of chlorophyll content after 16 hr (reference value: 0.94 ug/ml). It counts as functional.
The subject of assay [8] is Scenedesmus acutus. Kind of assay: Phytotoxicity against Scenedesmus acutus in light condition assessed as reduction of chlorophyll content after 16 hr (reference value: 20.25 ug/ml). It counts as functional.
Assay [9] concerns Scenedesmus acutus. The assay is described as follows: Phytotoxicity against Scenedesmus acutus in light condition assessed as cell density per micro liter of packed cell volume after 16 hr (reference value: 3.4 ml). In kind it is functional. Set-up: unit not given here.
Assay [10] relates to Scenedesmus acutus. The assay is described as follows: Phytotoxicity against Scenedesmus acutus in dark condition assessed as effect on protoporphyrin-9 accumulation per ml of packed cell volume at 10^-5 M after 16 hr. In kind it is functional, organism-based.
Assay [11] deals with Scenedesmus acutus. The assay is described as follows: Protection against oxyfluorfen-induced phytotoxicity in Scenedesmus acutus in light condition assessed as reduction of protoporphyrin-9 accumulation per ml of packed cell volume after 2 hr. It counts as functional.
Assay [12] concerns Scenedesmus acutus. The assay is described as follows: Phytotoxicity against Scenedesmus acutus in light condition assessed as effect on protoporphyrin-9 accumulation per ml of packed cell volume at 10^-5 M after 16 hr. It counts as functional, organism-based.

On to `CCNc1nc(NCC)nc(C(F)(F)F)n1`, for which the Activity in [1] turned out to be 2.4; in assay [2] it was 11.04 µg/mL; in assay [3], 1.26 nM; in assay [4], 2.4; in assay [5], 38.65 nmol/mL; in assay [6], 3.2 nmol/mL. For the same molecule, the Activity in assay [7] amounted to 13.53 µg/mL; in assay [8] it was 16.7 µg/mL; in [9], 2.6; in assay [11], 31.24 nM. For the same molecule, the result in assay [10] and in [12] was inactive.
On to `CCNc1nc(Cl)nc(NCC)n1` [SIMAZINE], for which the Activity in [2] was found to be 10.52 µg/mL; in [3], 2.82 nM; in assay [5] it was 19.15 nmol/mL; in assay [6], 4.24 nmol/mL; in assay [7], 13.05 µg/mL; in assay [8] it was 16.86 µg/mL. Moreover, in assay [11], the Activity is listed as 52.7 nM. Moreover, the outcome in assay [10] and in [12] was inactive.
Regarding `CCNc1nc(NCC)nc(SC)n1` [SIMETRYN], the Activity in assay [2] is 10.52 µg/mL; in assay [3] it was 0.4 nM; in [5] it was 31.92 nmol/mL; in [6], 1.7 nmol/mL; in [7], 14.46 µg/mL; in [8], 17.74 µg/mL. Further, in assay [11], the Activity was determined as 30.67 nM. Besides, the outcome in assay [10] and in [12] was inactive.
For the molecule `CCOc1cc(Oc2ccc(C(F)(F)F)cc2Cl)ccc1[N+](=O)[O-]` [OXYFLUORFEN], the Activity in [3] was 11.82 nM; in [7], 0.94 µg/mL; in assay [11], 102.38 nM.
Regarding `CCNc1nc(C)nc(NCC)n1`, the Activity in assay [1] was determined as 2.3; in assay [2] it was 1.37 µg/mL; in assay [3] it was 11.93 nM; in assay [4] it was 2.3; in [5], 67.45 nmol/mL; in assay [6], 12.92 nmol/mL. For the same molecule, the Activity in assay [7] was 1.05 µg/mL; in assay [8], 19.09 µg/mL; in [9] it was 3; in assay [11] it was 57.97 nM. In addition, the outcome in assay [10] and in assay [12] was inactive.
On to `CN(C)C(=O)Nc1ccc(Cl)c(Cl)c1` [DCMU], for which the Activity in [2] was found to be 11.56 µg/mL; in assay [5], 18.86 nmol/mL; in assay [6], 0.41 nmol/mL; in assay [7], 14.57 µg/mL; in assay [8] it was 17.66 µg/mL; in assay [11], 29.12 nM.
With `CCNc1nc(NCC)nc(C(Cl)(Cl)Cl)n1`, the Activity in assay [1] worked out at 2.4; in assay [2], 10.48 µg/mL; in assay [3] it was 1.63 nM; in [4] it was 2.2; in assay [5] it was 27.65 nmol/mL; in [6], 3.63 nmol/mL. In addition, the Activity in assay [7] was 13.31 µg/mL; in assay [8], 19.23 µg/mL; in assay [9], 2.6; in assay [11], 37.08 nM. The outcome in assay [10] and in assay [12] was inactive.
With `CCNc1nc(NCC)nc(-c2ccccc2)n1`, the Activity was determined as 2.3 in [1]; 0.46 µg/mL in [2]; 11.93 nM in assay [3]; 2.2 in assay [4]; 133.96 nmol/mL in assay [5]; 13.64 nmol/mL in [6]. Also, the Activity in assay [7] was determined as 0.67 µg/mL; in assay [8], 19.08 µg/mL; in assay [9], 3.2; in assay [11] it was 69.9 nM. The result in assay [10] and in [12] was inactive.
`O=C1C2=C(CCCC2)C(=O)N1c1ccc(Cl)cc1` [CHLOROPHTHALIUM]: the Activity was 2.3 in assay [1], 0.99 µg/mL in [2], 128.65 nmol/mL in assay [5] and 12.73 nmol/mL in assay [6].
